Literature values in US20240390277A1, “LIQUID FORMULATIONS OF TRAZODONE” (Rubicon Research Private Limited, priority 2023, published 2024).

Details: humans

Volume of distribution: 1.2 L/kg
Structure (SMILES): O=c1n(CCCN2CCN(c3cccc(Cl)c3)CC2)nc2ccccn12 [Trazodone]
